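Where inhibition never reached the appropriate level, the endpoint shown equals the highest concentration tested. Otherwise, values were interpolated linearly from a five-concentration, 48-hour dose response in 96-well plates. GI50 is the concentration that inhibits growth by half.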 Activity calls are given as the source filed them. Rule as the data show it: active = GI50 up to about 1.1 µM and inactive = higher.
What was measured:
Assay in all cases: NCI anticancer screen, dose series, 48 h
TK-10 = tested on: TK-10
MCF7 = tested on: MCF7
UACC-257 = tested on: UACC-257
NCI-H522 = tested on: NCI-H522
M14 = tested on: M14
SF-295 = tested on: SF-295
NCI/ADR-RES = tested on: NCI/ADR-RES
EKVX = tested on: EKVX
Hs-578T = tested on: Hs-578T
SR = tested on: SR
OVCAR-4 = tested on: OVCAR-4
SK-MEL-28 = tested on: SK-MEL-28
A498 = tested on: A498
U-251 = tested on: U-251
DU-145 = tested on: DU-145
OVCAR-3 = tested on: OVCAR-3
SN12C = tested on: SN12C
SK-OV-3 = tested on: SK-OV-3
786-0 = tested on: 786-0
MDA-MB-435 = tested on: MDA-MB-435

CC(=O)OC12COC1CC(O)C1(C)C(=O)C(O)C3=C(C)C(O)CC(O)(C(OC(=O)c4ccccc4)C21)C3(C)C (stereo not given)
GI50 (TK-10): > 74 µM (inactive)
GI50 (MCF7): 1.68 µM (inactive)
GI50 (UACC-257): 5 µM (inactive)
GI50 (NCI-H522): 0.638 µM (active)
GI50 (M14): 5.94 µM (inactive)
GI50 (SF-295): 26.3 µM (inactive)
GI50 (NCI/ADR-RES): > 100 µM (inactive)
GI50 (EKVX): > 86.5 µM (inactive)
GI50 (Hs-578T): 0.778 µM (active)
GI50 (SR): 5.12 µM (inactive)
GI50 (OVCAR-4): > 100 µM (inactive)
GI50 (SK-MEL-28): 3.38 µM (inactive)
GI50 (A498): > 100 µM (inactive)
GI50 (U-251): 0.65 µM (active)
GI50 (DU-145): 8.43 µM (inactive)
GI50 (OVCAR-3): 2.55 µM (inactive)
GI50 (SN12C): 4.94 µM (inactive)
GI50 (SK-OV-3): 2.31 µM (inactive)
GI50 (786-0): 13.4 µM (inactive)
GI50 (MDA-MB-435): 0.408 µM (active)

O=C(O)c1ccc2c(c1)Cc1cc([N+](=O)[O-])ccc1-2
GI50 (TK-10): 61 µM (inactive)
GI50 (MCF7): > 100 µM (inactive)
GI50 (UACC-257): 44.1 µM (inactive)
GI50 (NCI-H522): > 100 µM (inactive)
GI50 (M14): > 100 µM (inactive)
GI50 (SF-295): 90.8 µM (inactive)
GI50 (NCI/ADR-RES): > 100 µM (inactive)
GI50 (EKVX): > 100 µM (inactive)
GI50 (Hs-578T): 76.9 µM (inactive)
GI50 (SR): 86.1 µM (inactive)
GI50 (OVCAR-4): > 100 µM (inactive)
GI50 (SK-MEL-28): > 100 µM (inactive)
GI50 (A498): 44 µM (inactive)
GI50 (U-251): > 100 µM (inactive)
GI50 (DU-145): > 100 µM (inactive)
GI50 (OVCAR-3): > 100 µM (inactive)
GI50 (SN12C): > 100 µM (inactive)
GI50 (SK-OV-3): > 100 µM (inactive)
GI50 (786-0): > 100 µM (inactive)
GI50 (MDA-MB-435): > 100 µM (inactive)

CN(C)C1=Nc2ccccc2C(=S)N2CSCC12 (stereo not given)
GI50 (TK-10): > 100 µM (inactive)
GI50 (MCF7): 47.3 µM (inactive)
GI50 (UACC-257): > 100 µM (inactive)
GI50 (NCI-H522): 14.6 µM (inactive)
GI50 (M14): 66.2 µM (inactive)
GI50 (SF-295): > 100 µM (inactive)
GI50 (NCI/ADR-RES): 73.8 µM (inactive)
GI50 (EKVX): 41.1 µM (inactive)
GI50 (Hs-578T): 77.3 µM (inactive)
GI50 (SR): 17.9 µM (inactive)
GI50 (OVCAR-4): > 100 µM (inactive)
GI50 (SK-MEL-28): 81.1 µM (inactive)
GI50 (A498): > 100 µM (inactive)
GI50 (U-251): 35.6 µM (inactive)
GI50 (DU-145): > 100 µM (inactive)
GI50 (OVCAR-3): 32.7 µM (inactive)
GI50 (SN12C): 84.5 µM (inactive)
GI50 (SK-OV-3): > 100 µM (inactive)
GI50 (786-0): 25.9 µM (inactive)
GI50 (MDA-MB-435): > 100 µM (inactive)

CO[P@@]1(=O)O[C@@H](c2ccccc2)[C@H](O)[C@@]1(O)c1ccccc1
GI50 (TK-10): > 100 µM (inactive)
GI50 (MCF7): > 100 µM (inactive)
GI50 (UACC-257): > 100 µM (inactive)
GI50 (NCI-H522): > 100 µM (inactive)
GI50 (M14): > 100 µM (inactive)
GI50 (SF-295): > 100 µM (inactive)
GI50 (NCI/ADR-RES): > 100 µM (inactive)
GI50 (EKVX): > 100 µM (inactive)
GI50 (Hs-578T): 91.8 µM (inactive)
GI50 (SR): 10.2 µM (inactive)
GI50 (OVCAR-4): > 100 µM (inactive)
GI50 (SK-MEL-28): > 100 µM (inactive)
GI50 (A498): > 100 µM (inactive)
GI50 (U-251): > 100 µM (inactive)
GI50 (DU-145): > 100 µM (inactive)
GI50 (OVCAR-3): > 100 µM (inactive)
GI50 (SN12C): > 100 µM (inactive)
GI50 (SK-OV-3): > 100 µM (inactive)
GI50 (786-0): > 100 µM (inactive)
GI50 (MDA-MB-435): > 100 µM (inactive)

O=C(CCCC1Cc2ccccc2C1=O)c1ccccc1 (stereo not given)
GI50 (TK-10): 84.5 µM (inactive)
GI50 (MCF7): 31.2 µM (inactive)
GI50 (UACC-257): 46.2 µM (inactive)
GI50 (NCI-H522): 52.7 µM (inactive)
GI50 (M14): 99.8 µM (inactive)
GI50 (SF-295): 47.5 µM (inactive)
GI50 (NCI/ADR-RES): 26.9 µM (inactive)
GI50 (EKVX): 65.2 µM (inactive)
GI50 (Hs-578T): > 100 µM (inactive)
GI50 (SR): 41.2 µM (inactive)
GI50 (OVCAR-4): 59.3 µM (inactive)
GI50 (SK-MEL-28): > 100 µM (inactive)
GI50 (A498): 52.5 µM (inactive)
GI50 (U-251): 38.6 µM (inactive)
GI50 (DU-145): > 100 µM (inactive)
GI50 (OVCAR-3): 47.4 µM (inactive)
GI50 (SN12C): 54.7 µM (inactive)
GI50 (SK-OV-3): > 100 µM (inactive)
GI50 (786-0): > 100 µM (inactive)
GI50 (MDA-MB-435): 56.1 µM (inactive)

CNC(=O)N(C1=NCC(C)S1)c1ccc(C)c(C)c1 (stereo not given)
GI50 (TK-10): 9.04 µM (inactive)
GI50 (MCF7): 2.77 µM (inactive)
GI50 (UACC-257): 16.1 µM (inactive)
GI50 (NCI-H522): 4.82 µM (inactive)
GI50 (M14): 1.13 µM (inactive)
GI50 (SF-295): 3.17 µM (inactive)
GI50 (NCI/ADR-RES): 3.36 µM (inactive)
GI50 (EKVX): 6.55 µM (inactive)
GI50 (Hs-578T): 4.31 µM (inactive)
GI50 (SR): 3.67 µM (inactive)
GI50 (OVCAR-4): 13.6 µM (inactive)
GI50 (SK-MEL-28): 8.49 µM (inactive)
GI50 (A498): 2.99 µM (inactive)
GI50 (U-251): 3.59 µM (inactive)
GI50 (DU-145): 7.5 µM (inactive)
GI50 (OVCAR-3): 2.4 µM (inactive)
GI50 (SN12C): 7.23 µM (inactive)
GI50 (SK-OV-3): 4.28 µM (inactive)
GI50 (786-0): 4.74 µM (inactive)
GI50 (MDA-MB-435): 0.706 µM (active)

O=C(c1ccccc1)N1CCN(C(=S)N(C(=O)c2ccccc2)c2ccccc2)C1=S
GI50 (TK-10): 5.83 µM (inactive)
GI50 (MCF7): 3.13 µM (inactive)
GI50 (UACC-257): 8.49 µM (inactive)
GI50 (NCI-H522): 1.87 µM (inactive)
GI50 (M14): 3.17 µM (inactive)
GI50 (SF-295): 12.6 µM (inactive)
GI50 (NCI/ADR-RES): 5.16 µM (inactive)
GI50 (EKVX): 5.92 µM (inactive)
GI50 (Hs-578T): 3.1 µM (inactive)
GI50 (SR): 2.07 µM (inactive)
GI50 (OVCAR-4): 4.6 µM (inactive)
GI50 (SK-MEL-28): 3.27 µM (inactive)
GI50 (A498): 4.02 µM (inactive)
GI50 (U-251): 6.79 µM (inactive)
GI50 (DU-145): 3.01 µM (inactive)
GI50 (OVCAR-3): 4.21 µM (inactive)
GI50 (SN12C): 3.18 µM (inactive)
GI50 (SK-OV-3): 15.5 µM (inactive)
GI50 (786-0): 2.09 µM (inactive)
GI50 (MDA-MB-435): 3.84 µM (inactive)

CCN(CC)COC(=S)S
GI50 (TK-10): > 54 µM (inactive)
GI50 (MCF7): > 100 µM (inactive)
GI50 (UACC-257): 27.5 µM (inactive)
GI50 (NCI-H522): 3.61 µM (inactive)
GI50 (M14): 44.1 µM (inactive)
GI50 (SF-295): > 77.6 µM (inactive)
GI50 (NCI/ADR-RES): > 88.1 µM (inactive)
GI50 (EKVX): > 100 µM (inactive)
GI50 (Hs-578T): > 100 µM (inactive)
GI50 (SR): 0.233 µM (active)
GI50 (OVCAR-4): 48.8 µM (inactive)
GI50 (SK-MEL-28): > 100 µM (inactive)
GI50 (A498): > 100 µM (inactive)
GI50 (U-251): 30.3 µM (inactive)
GI50 (DU-145): 54.6 µM (inactive)
GI50 (OVCAR-3): 0.0516 µM (active)
GI50 (SN12C): > 100 µM (inactive)
GI50 (SK-OV-3): > 100 µM (inactive)
GI50 (786-0): 33.3 µM (inactive)
GI50 (MDA-MB-435): 38.3 µM (inactive)

From ChEMBL document CHEMBL1201862, “PubChem BioAssay data set” (2004)
